Experimental data from patent publication US9493466B2, “Treatment of cancer with TOR kinase inhibitors” (Signal Pharmaceuticals, LLC, priority 2011, dated 2016).

What was measured:
[1] = tested on: U87MG tumors; assay: Apoptosis TUNEL assay in U87MG tumors; assay type: in vivo, mice; details: 5 mg/kg BID oral for 4 days
Procedure: Mechanism of action studies. To determine the mechanism of action of Compound 1, mice bearing U87MG tumors of approximately 500 mm^3 were dosed orally with vehicle or Compound 1 at 5 mg/kg BID for 4 days. The positive control, rapamycin, was dosed at 4 mg/kg Q3D for 4 days. Two hours after the 7th dose of Compound 1 on day 4, animals were euthanized and tumors were dissected out and snap frozen in liquid nitrogen. In the rapamycin-treated group tumors were collected at 2 hour after the 2nd dose on day 4. The tumors were processed for immunohistochemistry (IHC) or TUNEL.
Apoptosis TUNEL Assay. To detect apoptotic cells, fluorescence in situ cell death detection kit (Roche Biosciences) was used. […]
Quantitation of Immunohistochemistry. The tissues sections processed for apoptosis or immunostained for proliferating cells (Ki67) or blood vessels were quantitated using Metamorph software. Using 20× objective, 5 different fields from each section, 2-4 sections from each tumor, and 3-4 tumors from each treatment group or control were used for quantitation. The area of interest was expressed as the percent threshold area of the total area.
Apoptotic Activity of Compound 1. […] FITC-labeled nucleotides (representing the cells with DNA strand breaks, a hallmark of apoptosis) can be detected using a microscope equipped with a fluorescence attachment.

[2] = tested on: advanced solid tumors, non-Hodgkin lymphoma or multiple myeloma; assay: Phase 1/2 study Part A: tumor response; assay type: in vivo, human
Description: Subjects will be evaluated for efficacy every 2 cycles through cycle 6 and every 3 cycles thereafter. The primary efficacy variable is response. Tumor assessments, including imaging (CT, MRI and/or PET) of the chest and abdomen and other sites as appropriate, will be performed during Screening. Subjects with brain lesions will also have brain scans at Screening and during follow-up tumor assessments. After Screening, tumor assessments (for all tumors except multiple myeloma) will be performed on completion of Cycles 2, 4 and 6 (i.e., on Cycles 3, 5 and 7/Day 1±7 days) and then every 3 months thereafter (e.g., Cycle 10 and 13/Day 1±7 days). Tumor assessment (for multiple myeloma and only NHL/DLBCL with known or suspected marrow involvement) (bone marrow aspiration and biopsy, with PD biomarker analysis, cytogenetic analysis if abnormally present at Screening) will be performed on completion of Cycles 4, 8, 12 and 16 only (i.e., on Cycles 5, 9, 13 and 17/Day 1±7 days). Cytogenetics need not be repeated if normal at Screening. Tumor response will be based on Response Evaluation Criteria in Solid Tumors (RECIST 1.1), International Workshop Criteria (IWC) for NHL/DLBCL or International Uniform Response Criteria (IURC) for Multiple Myeloma, and RANO for GBM, using the post resection MRI scan as the baseline. Given the difficulty in assessing tumor response following salvage surgery, the primary efficacy endpoint for GBM will be the proportion of subjects progression-free at 6 months from Day 1 relative to efficacy evaluable subjects in the GBM type. Subjects will be evaluated for tumor response on completion of Cycle 2, 4, 6, and so on. A descriptive analysis of evidence of anti-tumor activity will be provided based on clinical and radiographic assessments by the investigator, which includes assessment of target lesion, non-target lesion, new lesion and overall response.
The efficacy variable of focus for Part A will be best overall response. Other preliminary efficacy variables will be summarized using frequency tabulations for categorical variables or descriptive statistics for continuous variables.
Part A: Accelerated Dose Escalation Results.

[3] = tested on: HCC; assay: Phase 1/2 study Part B: tumor response, HCC; assay type: in vivo, human; details: 14 evaluable patients
Description: (§1) In Part B, subjects may start Compound 1 at the MTD and/or a lower dose level based on safety, PK and PD data from Part A. Approximately 150 subjects will be treated and evaluated for safety and preliminary antitumor activity after every two cycles of therapy. Tumor types include non-small cell lung cancer (NSCLC), glioblastoma multiforme (GBM), hepatocellular carcinoma (HCC), gastrointestinal neuroendocrine tumor of non-pancreatic origin (NET), diffuse large B-cell lymphoma (DLBCL), multiple myeloma (MM), and hormone receptor positive breast cancer (HRPBC). Up to 20 subjects will be enrolled in each tumor type.
(§2) Subjects will be evaluated for efficacy every 2 cycles through cycle 6 and every 3 cycles thereafter. The primary efficacy variable is response. Tumor assessments, including imaging (CT, MRI and/or PET) of the chest and abdomen and other sites as appropriate, will be performed during Screening. Subjects with brain lesions will also have brain scans at Screening and during follow-up tumor assessments. After Screening, tumor assessments (for all tumors except multiple myeloma) will be performed on completion of Cycles 2, 4 and 6 (i.e., on Cycles 3, 5 and 7/Day 1±7 days) and then every 3 months thereafter (e.g., Cycle 10 and 13/Day 1±7 days). Tumor assessment (for multiple myeloma and only NHL/DLBCL with known or suspected marrow involvement) (bone marrow aspiration and biopsy, with PD biomarker analysis, cytogenetic analysis if abnormally present at Screening) will be performed on completion of Cycles 4, 8, 12 and 16 only (i.e., on Cycles 5, 9, 13 and 17/Day 1±7 days). Cytogenetics need not be repeated if normal at Screening. […] Subjects will be evaluated for tumor response on completion of Cycle 2, 4, 6, and so on. […]
(§3) For Part B, efficacy variables to be analyzed include tumor response at the end of treatment, the proportion of subject alive and progression-free, and duration of response. […]

[4] = tested on: DLBCL; assay: Phase 1/2 study Part B: tumor response, DLBCL; assay type: in vivo, human; details: 11 evaluable patients
Description: as §1, §2, §3

[5] = ER+/Her2− breast cancer subject

Structure (SMILES): CO[C@H]1CC[C@H](N2C(=O)CNc3ncc(-c4ccc(C(C)(C)O)nc4)nc32)CC1 [Compound 1, 7-(6-(2-hydroxypropan-2-yl)pyridin-3-yl)-1-((1r,4r)-4-methoxycyclohexyl)-3,4-dihydropyrazino-[2,3-b]pyrazin-2(1H)-one]
- TUNEL-positive cells compared with vehicle control [1]: more than a four-fold increase
- regression of target lesions ([2]; 1 breast cancer subject, FIG. 27): greater than 30%
- duration of Partial Response, first restaging scan to last scan [2, 5]: 220 days
- duration of partial response, first restaging scan to last dose [2, 5]: 271 days
- time to progression, first dose to last dose [2, 5]: 328 days
- time to progression, first dose to last scan [2, 5]: 277 days
- maximum reduction in target lesions ([2]; ER+/Her2− breast cancer subject, after 10 cycles): 50%
- reduction in target lesions ([2]; ER+/Her2− breast cancer subject, first restaging after 2 cycles): 30%
- longest duration of SD ([2]; Part A): 24 weeks
- subjects with target lesion responses in the stable range ([2]; Part A, FIG. 28): Fifteen subjects
- subjects with Stable Disease at first restaging ([2]; Part A, after 2 cycles): Eight subjects
- subjects with PR (best overall response) ([2]; Part A, breast cancer, dose escalated from 30 to 45 mg, more than 11 cycles): One subject
- best target lesions responses (reduction) [3]: up to 47%
- patients meeting Partial Response (RECIST 1.1) [3]: 2 patients
- patients meeting at least Stable Disease (RECIST 1.1) [3]: 5 patients
- best target lesions responses (reduction) [4]: up to 75%
- patients meeting Partial Response (RECIST 1.1) [4]: 2 patients
- patients meeting at least Stable Disease (RECIST 1.1) [4]: 1 patient
